The record followed here is US20250304550A1, “BROMODOMAIN AND EXTRA-TERMINAL (BET) SUBFAMILY BROMODOMAIN 1 (BD1) SELECTIVE INHIBITORS AND METHODS USING SAME” (Baylor College of Medicine, priority 2022, published 2025).

A short description of series [1]: Metabolic stability assay in mouse liver microsomes. Type of series: in vitro ADME. The following applies: 0.5 mg protein/mL; compound 2.0 μM; NADPH 1.0 mM. Background: Liver microsomes are vesicles of endoplasmic reticulum, rich in cytochrome P450 enzymes.
Series [2] can be described thus: Metabolic stability assay in human liver microsomes. It counts as in vitro ADME. The conditions noted are these: 0.5 mg protein/mL; compound 2.0 μM; NADPH 1.0 mM.
Series [3] concerns the target BRDT-BD1 (Homo sapiens (Human), UniProt Q58F21). Put plainly: AlphaScreen bromodomain proximity assay (biotinylated JQ1 competition). The conditions noted are these: for IC50: AlphaScreen; for BRDT-BD1 vs. BRDT-BD2 fold: BD1 selectivity, AlphaScreen IC50 ratio; for fold loss of selectivity BRDT-BD1 over BRDT-BD2: compared to compound 2. It counts as binding. Background: In Alpha technology, singlet oxygen from a donor bead excites a nearby acceptor bead.

The target in series [4] is BRD4-BD1 (Homo sapiens (Human), UniProt O60885). The series is described as above. It counts as binding. The following applies: for IC50: AlphaScreen; for BRD4-BD1 vs. BRD4-BD2 fold: BD1 selectivity, AlphaScreen IC50 ratio.
Series [5] concerns the target BRDT-BD2 (Homo sapiens (Human), UniProt Q58F21). The description is as above. Type of series: binding. The following applies: in Table 4 '—' = not efficient.
The target in series [6] is BRD4-BD2 (Homo sapiens (Human), UniProt O60885). Described as above. It counts as binding. The conditions noted are these: in Table 4 '—' = not efficient.

On to `Cc1nnc2n1-c1ccc(Cl)cc1C(c1ccccc1)=NC2` [Alprazolam, reference compound], for which the “MLM t1/2” value in series [1] amounted to 5.03 h. For the same molecule, the “HLM t1/2” value in series [2] was determined as 14.4 h.

With `CNC(=O)C(CC1CCN(C(=O)Cc2ccc3[nH]c(=O)cc(C)c3c2)CC1)NC(=O)c1ccc(-c2ccc(C)cc2C)cn1` (stereo not shown) [Compound 1, 5-(2,4-dimethylphenyl)-N-(3-(1-(2-(4-methyl-2-oxo-1,2-dihydroquinolin-6-yl)acetyl)piperidin-4-yl)-1-(methylamino)-1-oxopropan-2-yl)picolinamide], in series [3], the IC50 (in general, the concentration that gives 50% inhibition) was found to be 5.7 nM and the “BRDT-BD1 vs. BRDT-BD2 fold” value is on record as 2246 fold.

`CNC(=O)[C@H](CC1CCN(C(=O)Cc2ccc3[nH]c(=O)cc(C)c3c2)CC1)NC(=O)c1ccc(C(F)(F)F)cn1` [Compound 7, (S)-N-(3-(1-(2-(4-methyl-2-oxo-1,2-dihydroquinolin-6-yl)acetyl)piperidin-4-yl)-1-(methylamino)-1-oxopropan-2-yl)-5-(trifluoromethyl)picolinamide]: the IC50 was determined as 3.8 nM in series [3] and 7.4 nM in series [4].

Turning to `CNC(=O)[C@@H](CC1CCN(C(=O)Cc2ccc3[nH]c(=O)cc(C)c3c2)CC1)NC(=O)c1ccc(-c2ccc(Cl)cc2)cn1` [Compound 8, (R)-5-(4-chlorophenyl)-N-(3-(1-(2-(4-methyl-2-oxo-1,2-dihydroquinolin-6-yl)acetyl)piperidin-4-yl)-1-(methylamino)-1-oxopropan-2-yl)picolinamide], the IC50 in series [3] worked out at 5.1 nM; in series [5] it was 33800 nM; in series [4], 12.8 nM; in series [6], 19900 nM. In series [3], the “BRDT-BD1 vs. BRDT-BD2 fold” value was 6,633 fold. In series [4], the “BRD4-BD1 vs. BRD4-BD2 fold” value is given as 1,553 fold.

Turning to `CNC(=O)[C@@H](CC1CCN(C(=O)Cc2ccc3[nH]c(=O)cc(C)c3c2)CC1)NC(=O)c1ccc(-c2ccc(Cl)c(F)c2)cn1` [Compound 9, (R)-5-(4-chloro-3-fluorophenyl)-N-(3-(1-(2-(4-methyl-2-oxo-1,2-dihydroquinolin-6-yl)acetyl)piperidin-4-yl)-1-(methylamino)-1-oxopropan-2-yl)picolinamide], the IC50 was 4.7 nM in series [3], 22600 nM in series [5], 9.8 nM in series [4] and 14000 nM in series [6]. In series [3], the “BRDT-BD1 vs. BRDT-BD2 fold” value is recorded as 4,799 fold. For the same molecule, the “BRD4-BD1 vs. BRD4-BD2 fold” value in series [4] is given as 1,423 fold.

With `CNC(=O)C(CC1CCN(C(=O)Cc2ccc3[nH]c(=O)cc(C)c3c2)CC1)NC(=O)c1ccccn1` (stereo not shown) [Compound 11, N-(3-(1-(2-(4-methyl-2-oxo-1,2-dihydroquinolin-6-yl)acetyl)piperidin-4-yl)-1-(methylamino)-1-oxopropan-2-yl)picolinamide], in series [3], the IC50 stood at 20.2 nM, the “BRDT-BD1 vs. BRDT-BD2 fold” value is on record as 960 fold and the “fold loss of selectivity BRDT-BD1 over BRDT-BD2” value was found to be 5 fold. For the same molecule, the IC50 in series [5] came out at 19400 nM. In series [4], the IC50 was 15.7 nM and the “BRD4-BD1 vs. BRD4-BD2 fold” value is 2,078 fold. This molecule also gave an IC50 in series [6] of 32600 nM.

Turning to `CNC(=O)C(CC1CCN(C(=O)Cc2ccc3[nH]c(=O)cc(C)c3c2)CC1)NC(=O)c1ccc(C(F)(F)F)cn1` (stereo not shown) [Compound 12, N-(3-(1-(2-(4-methyl-2-oxo-1,2-dihydroquinolin-6-yl)acetyl)piperidin-4-yl)-1-(methylamino)-1-oxopropan-2-yl)-5-(trifluoromethyl)picolinamide], the half-maximal inhibitory concentration (IC50) in series [3] came out at 14 nM; in series [5], 7190 nM; in series [4], 6.9 nM; in series [6], 8800 nM. Moreover, in series [3], the “BRDT-BD1 vs. BRDT-BD2 fold” value came out at 513 fold. For the same molecule, the “BRD4-BD1 vs. BRD4-BD2 fold” value in series [4] is on record as 1,275 fold.

As for `Cc1ccc(-c2ccc(C(=O)NC(C)CC3CCN(C(=O)Cc4ccc5[nH]c(=O)cc(C)c5c4)CC3)nc2)c(C)c1` (stereo not shown) [Compound 14, 5-(2,4-dimethylphenyl)-N-(1-(1-(2-(4-methyl-2-oxo-1,2-dihydroquinolin-6-yl)acetyl)piperidin-4-yl)propan-2-yl)picolinamide], the half-inhibitory concentration (IC50) in series [3] worked out at 31 nM; in series [5] it was 23400 nM; in series [4], 52.4 nM; in series [6] it was 20000 nM. The “BRDT-BD1 vs. BRDT-BD2 fold” value in series [3] was found to be 756 fold. Further, in series [3], the “fold loss of selectivity BRDT-BD1 over BRDT-BD2” value amounted to 6.5 fold. The “BRD4-BD1 vs. BRD4-BD2 fold” value in series [4] turned out to be 381 fold.

As for `Cc1ccc(-c2ccc(C(=O)NCCC3CCN(C(=O)Cc4ccc5[nH]c(=O)cc(C)c5c4)CC3)nc2)c(C)c1` [Compound 15, 5-(2,4-dimethylphenyl)-N-(2-(1-(2-(4-methyl-2-oxo-1,2-dihydroquinolin-6-yl)acetyl)piperidin-4-yl)ethyl)picolinamide], the IC50 in series [3] is 33.7 nM; in series [5], 67800 nM; in series [4] it was 27.8 nM; in series [6], 8690 nM. The “BRDT-BD1 vs. BRDT-BD2 fold” value in series [3] is 2012 fold. Besides, in series [4], the “BRD4-BD1 vs. BRD4-BD2 fold” value came out at 312 fold.

With `Cc1cc(=O)[nH]c2ccc(CC(=O)N3CCC(CCNC(=O)c4ccccn4)CC3)cc12` [Compound 16, N-(2-(1-(2-(4-methyl-2-oxo-1,2-dihydroquinolin-6-yl)acetyl)piperidin-4-yl)ethyl)picolinamide], the half-maximal inhibitory concentration (IC50) in series [3] was 35.4 nM; in series [5], 6800 nM; in series [4] it was 13.8 nM; in series [6] it was 75200 nM. Also, in series [3], the “BRDT-BD1 vs. BRDT-BD2 fold” value was 192 fold. In addition, the “BRD4-BD1 vs. BRD4-BD2 fold” value in series [4] was 5,449 fold.

In the case of `Cc1cc(=O)[nH]c2ccc(CC(=O)N3CCC(CCNC(=O)c4ccccc4)CC3)cc12` [Compound 17, N-(2-(1-(2-(4-methyl-2-oxo-1,2-dihydroquinolin-6-yl)acetyl)piperidin-4-yl)ethyl)benzamide], the values for the half-inhibitory concentration (IC50) in series [3], in series [5] and in series [4] were 148 nM, 10400 nM and 47.9 nM, respectively. The “BRDT-BD1 vs. BRDT-BD2 fold” value in series [3] was 70 fold.

With `Cc1cc(=O)[nH]c2ccc(CC(=O)N3CCC(CCNC(=O)c4ccc5ccccc5n4)CC3)cc12` [Compound 18, N-(2-(1-(2-(4-methyl-2-oxo-1,2-dihydroquinolin-6-yl)acetyl)piperidin-4-yl)ethyl)quinoline-2-carboxamide], the IC50 is 81.3 nM in series [3] and 122 nM in series [4].

As for `Cc1cc(=O)[nH]c2ccc(CC(=O)N3CCC(CCNC(=O)c4cc5ccccc5cn4)CC3)cc12` [Compound 19, N-(2-(1-(2-(4-methyl-2-oxo-1,2-dihydroquinolin-6-yl)acetyl)piperidin-4-yl)ethyl)isoquinoline-3-carboxamide], the IC50 in series [3] is 116 nM; in series [4], 119 nM.

Consider `Cc1cc(=O)[nH]c2ccc(CC(=O)N3CCC(CCNC(=O)c4nccc5ccccc45)CC3)cc12` [Compound 20, N-(2-(1-(2-(4-methyl-2-oxo-1,2-dihydroquinolin-6-yl)acetyl)piperidin-4-yl)ethyl)isoquinoline-1-carboxamide], for which the values for the IC50 in series [3] and in series [4] were 638 nM and 341 nM, respectively.

On to `Cc1cc(=O)[nH]c2ccc(CC(=O)N3CCN(CCNC(=O)c4ccccn4)CC3)cc12` [Compound 21, N-(2-(4-(2-(4-methyl-2-oxo-1,2-dihydroquinolin-6-yl)acetyl)piperazin-1-yl)ethyl)picolinamide], for which the IC50 in series [3] came to 5200 nM; in series [5], 71800 nM; in series [4], 1300 nM. The “BRDT-BD1 vs. BRDT-BD2 fold” value in series [3] worked out at 13.8 fold.
